Laboratory results from US20260167659A1, “STING AGONISTS” (LIGACHEM BIOSCIENCES INC., priority 2022, published 2026).

How the values were obtained:
[1] = target: T1, hSTING HAQ variant (Homo sapiens, UniProt Q86WV6, G230A/H232R/R293Q/R71H); experiment: STING activation, THP1-Dual IRF3 reporter assay, hSTING-HAQ cells; assay type: cell-based; conditions: IRF3 luciferase reporter, 24 hours, read-out: STING activity using hSTING-HAQ cells, HAQ EC50
T1 construct: host or cells: THP1-Dual cells (human monocytes)
T1 sequence (Q86WV6 whole entry R71H/G230A/H232R/R293Q): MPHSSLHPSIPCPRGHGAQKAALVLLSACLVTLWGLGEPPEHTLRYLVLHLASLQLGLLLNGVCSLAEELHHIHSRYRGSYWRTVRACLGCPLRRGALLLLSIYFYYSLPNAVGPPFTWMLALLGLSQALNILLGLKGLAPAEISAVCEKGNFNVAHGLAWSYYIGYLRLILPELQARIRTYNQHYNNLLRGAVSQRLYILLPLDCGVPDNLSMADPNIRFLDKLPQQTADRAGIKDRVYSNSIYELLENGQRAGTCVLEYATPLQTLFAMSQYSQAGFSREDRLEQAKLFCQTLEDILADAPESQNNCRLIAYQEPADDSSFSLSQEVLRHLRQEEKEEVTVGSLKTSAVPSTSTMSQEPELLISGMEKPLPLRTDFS
Experimental: To assess potency of STING agonist compounds described herein, THP1-Dual™ Cells (NF—KB-SEAP and IRF-Lucia luciferase reporter monocytes, InvivoGen) were used. The reporter cells were knocked-in either of hSTING-WT (R232, #thpd-r232), HAQ variant (#thpd-nfis), or H232 variant (#thpd-h232). All cells were cultured at 37° C. in a humidified incubator at 5% CO2 and maintained in RPMI 1640 medium (Gibco, #22400097) supplemented with 10% heat-inactivated FBS and 1×Pen-Strep (Gibco, #15140122). To measure STING agonist-mediated IRF3 activity, the cells (9.0×10^4 cells per well) were seeded in a flat-bottomed 96-well plate. The next day, the cells were treated with compounds in a serial dilution for 24 hours. Subsequently, 20 μL of the cell culture supernatant and 50 μL of the QUANTI-Luc™ reagent (InvivoGen, #rep-qlc) were mixed in a 96-well white plate and then, luciferase activity was measured using an EnVision Xcite multilabel reader. The data were analyzed using Prism8 software (4-parameter).
The potency of STING agonist compounds was evaluated by the activation of Type I Interferon pathway using THP-1 IRF3 reporter assay.

[2] = test system: Human THP-1 cells; experiment: THP-1 activation, CD86 and HLA-DR by flow cytometry; assay type: cell-based; conditions: THP-1, 5-fold serial dilution from 1 μM, 48 hours
Experimental: To test the effect of STING agonist compounds described herein in the activation of innate and adaptive immune cells, flow cytometry (FACS) was performed. Human THP-1 cells (Korean Cell Line Bank, #40202) and PBMCs were seeded at 1.2×10^5 cells per well in a round-bottomed 96-well plate in RPMI 1640 medium (Gibco, #22400097) supplemented with 10% heat-inactivated FBS and 1× Antibiotic-Antimycotic (Gibco, #15240062) and rested for 24 hours at 37° C. The cells were stimulated with the STING agonist compounds as described; For THP-1 stimulation, the cells were treated with the STING agonist compound (Compound 313) in a 5-fold serial dilution from 1 μM for 48 hours. The induction of cell surface activation markers, CD86 (co-stimulatory molecule) and HLA-DR (MHC-class II), was measured by flow cytometry. […] For flow cytometry analysis, the stimulated cells were centrifuged at 300 g for 5 minutes at 4° C., and then resuspended in FACS buffer (2% FBS, 2 mM EDTA in PBS). […] Subsequently, the cells were stained with fluorescence-conjugated antibodies against CD8, CD3, CD56, and CD69 for CD8 T and NK cells activation and against CD86 and MHC-II for THP-1 naïve cells activation for 40 minutes at 4° C. After washing three times with FACS buffer, the cells were resuspended in FACS buffer and analyzed by FACSlyric (BD bioscience). The data were analyzed with Flowjo 9.0 software (BD bioscience).

[3] = Normal cell cytotoxicity in PBMCs, CellTiter-Glo; assay type: cell-based; conditions: human, read-out: In vitro cell cytotoxicity in PBMCs CC50
Summary of the method: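 PBMCs at 8.0×10^4 cells/well in RPMI 1640 with 10% FBS were rested 24 h at 37 °C. Cells were then exposed to the STING agonists for 72 h. Viability was read by CellTiter-Glo luminescence and expressed as percentage cell death.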

[4] = test system: EMT6 cells; experiment: In vivo efficacy, EMT6 syngeneic mouse model; parameters: species or system BALB/c mice; conditions: FIG. 12
Experimental: Female BALB/c mice (KOTECH, South Korea) with 6 weeks of age, were used for all studies that were completed under the approval of the Legochembio Science's Institutional Animal Care and Use Committee (IACUC). CT26 or EMT6 cells (American Type Culture Collection (ATCC), #CRL-2638, #CRL-2755) were maintained in RPMI 1640 medium (Gibco, #22400097) supplemented with 10% heat-inactivated FBS and 1× Antibiotic-Antimycotic (Gibco, #15240062) at 37° C. with 5% CO2. The mycoplasma-negative cells were used for all experiments and mycoplasma test was done regularly using e-Myco™ VALiD Mycoplasma PCR Detection Kit (iNtRON biotechnology, #25239). CT26 cells (2×10^5 cells/mouse) or EMT6 cells (5×10^5 cells/mouse) in PBS were implanted subcutaneously into the shaved right flank. Tumor volumes and body weights were measured every 3 to 4 days, and the tomor volumes were calculated according to the formula 0.5×(length)×(width)^2.
Specifically, to determine in vivo efficacy of STING agonist compounds (Compound 214 and 221) in CT26 syngeneic mouse model, when tumor volume reached 70 mm^3, each compound was given at 1.5 mg/kg intravenously every 3 or 4 days (total three times). […] To determine in vivo efficacy of STING agonist compound (Compound 313) in EMT6 syngeneic mouse model, when tumor volume 100 mm^3, the compound was given at the indicated doses intravenously once weekly for 3 weeks except for the dose at 0.05 mg/kg twice a week.
A syngeneic system was used to assess the ability of the STING agonist compounds to induce immune responses and drive an anti-tumor immune response. In both CT26 and EMT6 syngeneic models, the STING agonist compounds remarkably controlled tumor growth at various doses (FIGS. 7 to 12).
Compound 313 also eliminated tumors in all groups (1 out of 5 for 0.05 mg/kg, 2 out of 5 for 0.1 mg/kg, 5 out of 5 for both 0.3 and 0.6 mg/kg) in EMT6 model (FIG. 12).

- EC50 [1]: 115 nM
Compound: CCn1nc(C)cc1C(=O)Nc1nc2cc(C(N)=O)cc(OC/C=C/Cn3cc(NC(=O)OCc4ccc(O[C@@H]5O[C@H](C(=O)O)[C@@H](O)[C@H](O)[C@H]5O)c(C(=O)NCCOCCOCCN(C)C)c4)cn3)c2n1C/C=C/Cn1c(NC(=O)c2cc(C)nn2CC)nc2cc(C(N)=O)cc(OCCCC(=O)O)c21 [Compound 313]
- co-stimulatory molecule CD86 on cell surface ([2]; FIG. 3A): Up-regulation
- MHC class II molecule HLA-DR on cell surface ([2]; FIG. 3B): Up-regulation
- CC50 at 72 h [3]: 98 nM
- mice with tumors eliminated ([4]; 0.05 mg/kg intravenously twice a week): 1 out of 5
- mice with tumors eliminated ([4]; 0.1 mg/kg intravenously once weekly for 3 weeks): 2 out of 5
- mice with tumors eliminated ([4]; 0.3 mg/kg intravenously once weekly for 3 weeks): 5 out of 5
- mice with tumors eliminated ([4]; 0.6 mg/kg intravenously once weekly for 3 weeks): 5 out of 5
